Measurements as given in BindingDB's records for doi:10.1016/j.bmc.2018.04.029 (Shenyang Pharmaceutical University, 2018).

test: Inhibition of Hepatitis C virus genotype 1b NS5B RNA-dependent-RNA polymerase assessed as reduction in viral replication after 72 hrs by indirect immunofluorescence assay

EC50 [nM] | Structure (SMILES)
52 | Fc1ccccc1-c1nc2ccn(Cc3cn(-c4ccccc4F)nn3)cc-2n1
23 | Fc1ccccc1-c1nc2ccn(Cc3cn(-c4ccccc4)nn3)cc-2n1
1.2 | COc1ccc(-n2cc(Cn3ccc4nc(-c5ccccc5F)nc-4c3)nn2)cc1
13 | COc1cccc(-n2cc(Cn3ccc4nc(-c5ccccc5F)nc-4c3)nn2)c1
35 | Fc1ccc(-n2cc(Cn3ccc4nc(-c5ccccc5F)nc-4c3)nn2)cc1

Further lines, the molecule ahead of its results:

Structure (SMILES) | EC50 [nM]
O=c1ncccn1Cc1ccc(-n2cc(Cn3ccc4nc(-c5ccccc5F)nc-4c3)nn2)cc1 | 96
Cc1cc(C)n2cc(Cn3cc(Cn4ccc5nc(-c6ccccc6F)nc-5c4)nn3)nc2n1 | 37
Fc1ccccc1-c1nc2ccn(Cc3cn(Cc4cn5cccnc5n4)nn3)cc-2n1 | 21
O=c1ccccn1Cc1ccc(-n2cc(Cn3ccc4nc(-c5ccccc5F)nc-4c3)nn2)cc1 | 93
CS(=O)(=O)Nc1ccc(-n2cc(Cn3ccc4nc(-c5ccccc5F)nc-4c3)nn2)cc1 | 18
Cc1cc(C)n2nc(Cn3cc(Cn4ccc5nc(-c6ccccc6F)nc-5c4)nn3)nc2n1 | 84
